According to patent US20030054520A1, “Recombinant enzymes having improved NAD (H) affinity” (DEGUSSA AG, priority 2000, published 2003):

test system: G38D mutein; assay: Substrate spectrum: photometric reduction of keto substrates with NADH; format: biochemical; conditions: relative to acetophenone; 10 mM keto substrate, 0.4 mM NADH, pH 7.0, 30° C.
Description: It is known that the NADP(H)-dependent wild-type enzyme can reduce numerous ketones, keto esters and other carbonyl-groupcontaining compounds stereospecifically. Hereinafter, only a few selected keto compounds are tested as substrates, in order to confirm that the substrate-recognition region has not been changed in principle by the change of coenzyme binding site. For this purpose the keto compounds are tested in the following mixture (total volume of 1 ml).
10 mM keto substrate; 1 MM MgCl2.6H2O; 0.4 mM NADH; 960 μl of triethanolamine buffer, 50 mM, pH 7.0; 10 μl of enzyme (G38D mutein); partly purified (phenylsepharose; see above).
The activity is determined photometrically at 340 nm (30° C.). The following table summarizes the activity values.

SMILES | Activity, relative [%]
CCCCCC(C)=O [2-Heptanone] | 207
CCCCC(C)=O [2-Hexanone] | 169
CC1CCCCC1=O (stereo not drawn) [2-Methylcyclohexanone] | 334
CCOC(=O)C(=O)CC [2-Oxobutyric acid ethyl ester] | 137
CCOC(=O)C(=O)C(C)C [3-Methyl-2-oxobutyric acid ethyl ester] | 84
CCC(=O)CC(=O)OC [3-Oxovaleric acid methyl ester] | 127
CCOC(=O)CC(=O)CCl [4-Chloroacetoacetic acid ethyl ester] | 228
CC(=O)c1ccc(Cl)cc1 [4-chloroacetophenone] | 68
CCOC(=O)CC(C)=O [Acetoacetic acid ethyl ester] | 88
COC(=O)CC(C)=O [Acetoacetic acid methyl ester] | 188
CC(=O)c1ccccc1 [Acetophenone] | 100
CCOC(=O)C(=O)CCc1ccccc1 [Benzyl pyruvate ethyl ester] | 13
COC(=O)C(=O)c1ccccc1 [Phenylglyoxylic acid methyl ester] | 10
CCOC(=O)C(C)=O [Pyruvic acid ethyl ester] | 260
COC(=O)C(C)=O [Pyruvic acid methyl ester] | 191
